Measured values published in ChEMBL document CHEMBL1137075, “General model for estimation of the inhibition of protein kinases using Monte Carlo simulations” (J Med Chem, 2004).

Key:
[1] = target: Tyrosine-protein kinase Lck (Homo sapiens, UniProt P06239)
Description: Evaluated for inhibition of human p56 Lck tyrosine kinase

[2] = target: Cyclin-dependent kinase 2 (Homo sapiens, UniProt P24941); experiment: Evaluated for inhibition of human cyclin dependent kinase 2 (CDK2)

Chain of Tyrosine-protein kinase Lck (P06239 whole entry): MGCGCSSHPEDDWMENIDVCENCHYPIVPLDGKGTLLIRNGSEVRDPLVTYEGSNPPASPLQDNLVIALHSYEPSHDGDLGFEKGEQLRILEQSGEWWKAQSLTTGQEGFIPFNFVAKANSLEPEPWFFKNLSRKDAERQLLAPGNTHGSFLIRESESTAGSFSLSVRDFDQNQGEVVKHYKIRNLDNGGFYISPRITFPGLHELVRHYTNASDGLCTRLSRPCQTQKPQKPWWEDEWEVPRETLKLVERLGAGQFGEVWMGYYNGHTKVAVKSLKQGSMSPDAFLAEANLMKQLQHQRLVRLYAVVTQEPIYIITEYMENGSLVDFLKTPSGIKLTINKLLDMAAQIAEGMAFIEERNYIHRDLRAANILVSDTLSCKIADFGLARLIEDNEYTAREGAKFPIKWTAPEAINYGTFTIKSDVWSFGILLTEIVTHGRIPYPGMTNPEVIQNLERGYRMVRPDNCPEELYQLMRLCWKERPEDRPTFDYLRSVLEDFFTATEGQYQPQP

Compound | IC50 [1] | IC50 [2]
Oc1[nH]c2ccc(Br)cc2c1/N=N/c1ccccc1 |  | 43 nM
c1ccc2c(c1)nc(C1CCCCC1)c1cncn12 | 3170 nM | 
c1cncc(-c2nc3ccccc3n3cncc23)c1 | 820 nM | 
c1ccc2c(c1)nc(C1CC1)c1cncn12 | 3170 nM | 
COc1ccc2[nH]c(O)c(/N=N/c3ccccc3)c2c1 |  | 60 nM
Oc1[nH]c2ccccc2c1/N=N/c1ccccc1 |  | 46 nM

More lines, now with the values ahead:

IC50 [1] | IC50 [2] | Compound
6.2 nM |  | COc1cc2nc(Nc3c(C)cccc3Cl)c3cnc(CO)n3c2cc1OC
2680 nM |  | CCCc1nc2ccccc2n2cncc12
10 nM |  | COc1cc2nc(Nc3c(C)cccc3Cl)c3cnc(C=O)n3c2cc1OC
